Source: US20200270216A1, “COMPOSITIONS AND METHODS FOR INHIBITING N-SMASE2” (The Regents of the University of California, priority 2017, published 2020)
Entries after “also recorded” stand apart in the source; their conditions may differ. Where two headings read alike, the source gives them in different places.

Legend:
[1] = test system: HEK293T Tau RD P301S FRET biosensors; assay: P2-induced tau aggregation in Tau P301S FRET biosensors (microscopy, flow cytometry); type: cell-based
Excerpt: The tau biosensors were HEK293T cells, with stably expressed tau repeat domains with disease-associated mutation (P301S) fused to either CFP or YFP (HEK293T Tau RD P301S FRET biosensors) were transduced with pulled synaptosomal (P2) extracts from AD brains using lipofectamine 2000. Cultures treated with equal amount of empty liposomes were used as a control. […] Cells were imaged after 24 hrs using automated microscope imaging system (Lionheart FX) equipped with 20× objective and CFP-YFP FRET Image filter cube.
After sixty hours treatment, cells and cell medium were collected. Cells were prepared for flow cytometry and FRET signal was detected using LSRII flow cytometer (BD biosciences). Cells were back gated onto forward scatter versus side scatter to insure a single cell analysis, 5,000 cells were collected within the gate. FRET negative and FRET-positive cell populations were defined as previously described.

nSMase2 = target: T1, nSMase2 (Mus musculus, UniProt Q9JJY3); assay: Target engagement: nSMase activity in brain homogenates of treated mice; type: in vivo, C57BL6 mice; details: 100 mg/kg oral gavage, 4 hours
T1 construct: from tissue; host or cells: mouse brain (cortical homogenate)
T1 sequence (Q9JJY3 1-655): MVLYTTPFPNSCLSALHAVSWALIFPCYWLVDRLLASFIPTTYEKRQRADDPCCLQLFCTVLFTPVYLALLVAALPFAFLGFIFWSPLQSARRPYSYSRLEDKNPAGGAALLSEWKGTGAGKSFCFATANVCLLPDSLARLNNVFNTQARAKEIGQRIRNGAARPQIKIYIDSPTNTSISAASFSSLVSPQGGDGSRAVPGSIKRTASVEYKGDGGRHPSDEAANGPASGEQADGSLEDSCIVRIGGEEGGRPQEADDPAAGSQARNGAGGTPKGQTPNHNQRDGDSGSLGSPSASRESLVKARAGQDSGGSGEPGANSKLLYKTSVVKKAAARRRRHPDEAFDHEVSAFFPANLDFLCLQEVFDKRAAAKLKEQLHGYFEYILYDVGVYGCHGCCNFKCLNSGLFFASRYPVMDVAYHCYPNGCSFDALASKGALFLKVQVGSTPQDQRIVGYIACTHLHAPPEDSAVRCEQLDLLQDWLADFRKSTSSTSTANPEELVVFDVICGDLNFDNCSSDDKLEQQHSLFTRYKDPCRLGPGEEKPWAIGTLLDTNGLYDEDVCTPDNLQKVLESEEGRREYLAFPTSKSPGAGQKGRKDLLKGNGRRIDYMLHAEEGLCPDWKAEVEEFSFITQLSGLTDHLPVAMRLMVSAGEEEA
Protocol: Alternatively, mice were treated with the compounds by a parental route and after euthanization the brain is removed and homogenized using 100 mM Tris-HCl pH 7.5, 100 mM sucrose, 100 μM PMSF, 1× protease inhibitor cocktail, and diluted to 2× in reaction buffer prior to the assay and nSMase2 activity is measured. The reaction was started by adding 10 μL of the working solution (100 μM Amplex Red reagent containing 2 U/mL HRP, 0.2 U/mL choline oxidase, 8 U/mL of alkaline phosphatase, and 0.5 mM sphingomyelin) and the progression of the reaction was monitored at 540/590 nm (Ex/Em) for 2 h at 37° C. The activity of nSMase2 at 2 hrs was plotted as percentage of control using PrismGraphPad.
(§1) Brain permeability and target engagement studies were conducted in C57BL/6J mice. […] Drug level evaluation in brain and plasma samples was performed by LC-MS/MS analysis. Brain tissue was homogenized and nSMase2 activity measured as described above.

[2] = test system: P2-seeded tau biosensor cells; assay: EV purification and characterization (immunoblot of exosome markers, nanoparticle tracking analysis); type: cell-based
Excerpt: Extracellular vesicles (EVs) were purified from the cell culture medium using Exo-Quick-TC exosome purification kit (SBI, EXOTC10A-1) according to the manufacturing instructions. Immunoblot analysis of the EV fractions was done by 10-20% Tris-Glycine gel in non-reduced conditions, transferred to PVDF membrane and probed with antibodies against CD63 (ThermoFisher, 10628D), followed by HRP-conjugated secondary antibodies. Chemiluminescent signals were obtained with Super Signal West Femto substrate (Thermo Scientific Pierce 34,095) and detected using a BioSpectrum 600 imaging system and quantified using VisionWorks Version 6.6A software (UVP; Upland, Calif.). […] Inhibition of nSMase2 activity in cell extracts of confluent tau biosensors was confirmed by nSMase2 activity assay analogous to the one described in Example 2.
Our analysis confirmed that nSMase2 inhibitors suppress release of EVs from P2-seeded tau biosensor cells. […] EV samples purified from the same number of donor cells were analyzed per each group. Purified EVs were imaged by transmission electron microscopy (FIG. 5C). Size distribution of particles in the samples were assessed by nanoparticle tracking analysis (FIG. 5D). WB analysis for exosome markers also confirmed decrease in the exosome-specific marker expression (FIG. 5E).
Donor cells were grown in medium with exosome-depleted FBS (ThermoFisher, A2720803) for 48 hours with or without compounds, cell culture medium was collected and EVs purified using ExoQuick-TC kit (SBI biosciences). For quality control, small amounts of purified EVs were fixed on a copper mesh in glutaraldehyde/paraformaldehyde solution, stained with 2% uranyl acetate solution and imaged on a JEOL 100CX electron microscope at 29,000 times magnification. […] Chemiluminescent signals were obtained with Super Signal West Femto substrate (Thermo Scientific Pierce 34095) and detected using a BioSpectrum 600 imaging system and quantified using VisionWorks Version 6.6A software (UVP; Upland, Calif.).

[3] = Pharmacokinetic / brain permeability study, LC-MS/MS of brain and plasma; type: in vivo, C57BL6 mice; details: C57BL/6J, mouse, mice, 100 mg/kg oral gavage
Protocol: as §1

inhibition (decrease) of nSMase activity in brain/cortical homogenates vs vehicle (nSMase2): 26.8%
concentration at 4 h ([3]; brain, read-out: level in brain): 135 ± 60.9 ng/g
concentration at 4 h ([3]; plasma, read-out: level in plasma): 8150 ± 2450 ng/mL
SMILES: O=c1[nH]c(=S)[nH]c(-c2ccccc2)c1Cc1c(O)ccc2ccccc12 [cambinol]
FRET-positive tau aggregates, microscopy ([1]; 10 μM, imaged after 24 hrs, vs DMSO (FIG. 3A)): visibly decreased; also recorded: Decrease in the tau aggregation
FRET-positive signal (integrated FRET density), flow cytometry ([1]; 10 uM, sixty hours treatment (FIG. 3B)): significant decrease
levels of exosomal marker CD63 in cell medium EV fraction ([2]; 10 μM, 60 hours, Western blot (FIG. 3C)): Decrease
release of EVs from P2-seeded donor cells ([2]; 50 μM, 48 hours, nanoparticle tracking analysis): released less EVs; also recorded: more effective than the nSMase2 inhibitor GW4869
